Data set [1] concerns human iPS cell line (201B7). Kind of data set: Optical microscopic observation of survival of cultured human iPS cells. It counts as cell-based. The following applies: reagent added to culture in HSM, observed after 3 days; M50054 at 100 μg/mL. As for the experimental part:
(§1) A human iPS cell line (201B7; Riken Cell Bank) was seeded to a 25-cm^2 flask (manufactured by Asahi Glass Co., Ltd.), a 6-well plate (manufactured by Asahi Glass Co., Ltd.), or a 96-well flat-bottomed plate (manufactured by Asahi Glass Co., Ltd.), which is coated with Matrigel, and was cultured in a 5% CO2 incubator at 37° C. The coating with Matrigel was performed by: adding a solution prepared by adding 8.7 ml of Dalbecco's Modified Eagle's Medium/Nutrient F-12 Ham (manufactured by Sigma) to 0.3 ml of Matrigel™ (manufactured by Becton Dickinson) to a 25-cm^2 flask, a 6-well plate, and a 96-well flat-bottomed plate, in amounts of 1 ml, 0.5 ml, and 20 μl, respectively; and leaving the whole to stand still at room temperature for 30 minutes. ReproFF (manufactured by ReproCELL Incorporated) was used as a cell culture medium. ReproFF is a culture medium for culturing primate ES cells or human IFS cells while maintaining the pluripotency. The cells were passaged by culture using a 25-cm^2 flask. The cells were dispersed as described below. After the aspiration of the medium, the 25-cm^2 flask was rinsed with 1 ml of physiological saline per flask. After the aspiration of the saline, 0.5 ml of Accutase (manufactured by Innovative Cell Technologies) was added and the cells were incubated in an incubator for 5 minutes. 0.5 ml of ReproFF was added, and the cells were harvested. Then, the cells were centrifuged at 1,000 rpm for 3 minutes. The supernatant was removed by aspiration, and then the precipitated cells were used by being suspended in ReproFF.
An optical microscope CKX41N-31PHP (manufactured by Olympus Corporation) was used for an optical microscopic observation of cells. […]
Further, RNA was extracted and the expression levels of various genes were analyzed by real-time quantitative PCR. […]
The resultant cells were observed under an optical microscope. In addition, the expression level of AFP in the resultant cells was measured.

A further data set concerns AFP gene. The data set is described as follows: AFP gene expression in cultured iPS cells by real-time quantitative PCR. The following applies: for expression level of AFP gene: 2 days in HSM plus compound alone (10 μM). The data set is classed as cell-based, human. The procedure: as §1
A medium used in a search study on various growth factors (hereinafter abbreviated as iPSm[-]) was prepared by adding 20% Knockout™ Serum Replacement (hereinafter abbreviated as KSR; manufactured by Life Technologies), Minimum Essential Amino Acids (manufactured by Life Technologies), 2 mM L-glutamine (manufactured by Life Technologies), and 1 mM 2-mercaptoethanol (manufactured by Sigma-Aldrich) to Dulbecco's […]-F12 (manufactured by Sigma-Aldrich) (Takahashi, K. et al., “Induction of Pluripotent Stem Cells from Adult Human Fibroblasts by Defined Factors,” Cell, 2007, Vol. 131, No. 5, p. 861-872).
Cell differentiation was confirmed by measuring an expression gene by real-time quantitative PCR. RNA was extracted by using Isogen (manufactured by NIPPON GENE) according to the manufacturer's instructions. 5 μg of total RNA was synthesized by using Superscript3 first-strand synthesis system for PCR (manufactured by Life Technologies) and an oligo dT primer according to the manufacturer's instructions. Real-time quantitative PCR was performed using 4 ng of synthesized cDNA per sample. PCR was performed as follows: PCR were 40 cycles of denaturation for 5 seconds and annealing-extension for 5 seconds. SYBR Green Master Mix (manufactured by Life Technologies) was used for the reaction. Mini Opticon system (manufactured by Bio-Rad) was used for detection in real-time PCR. The expression level of each gene was calculated as an average value of data obtained from three wells. Ribosomal protein L (RPL)-19 was used as an internal control and the expression level of each gene was represented as a relative expression level to the expression level of RPL-19.
First, iPS cells were cultured in HSM to confirm differentiation of the iPS cells to hepatocytes. Specifically, iPS cells were cultured in HSM for 2 days, and then gene expression in the cells was measured by real-time quantitative PCR. Thus, the induction of differentiation of iPS cells to hepatocytes was detected. ReproFF was used as a control medium and similar investigations were performed.
In this Example, the addition of NEAA and sodium pyruvate (1 mM) to HSM was investigated for the purpose of enhancing the survival of iPS cells. Specifically, iPS cells were cultured for 2 days in a medium prepared by adding NEAA and sodium pyruvate (1 mM) to HSM, and the expression of AFP gene was measured by real-time quantitative PCR. […]

The test system of data set [2] is human iPS cell line (201B7). The data set is described as follows: Cell proliferation assay (MTS assay) of surviving iPS cells. The data set is classed as cell-based. As for the experimental part: A human iPS cell line (201B7, Riken Cell Bank) was seeded to a 96-well flat-bottomed plate coated with Matrigel at 1,000 cells/50 μl per well. After 48 hours of culture, 3-(4,5-dimethylthiazol-2-yl)-5-(3-carboxymethoxyphenyl)-2-(4-sulfophenyl)-2H-tetrazolium inner salt (MTS; manufactured by Promega) was added at 5 μl per well, and the cells were incubated in an incubator for 2 hours. After that, cell proliferation was verified by measuring an absorbance at a wavelength of 490 nm with iMark™ Microplate Absorbance Reader (manufactured by Bio-Rad).
In view of the foregoing, MTS assay was performed 48 hours after the addition of M50054.
In general terms: Tetrazolium dyes change colour on reduction, which living cells bring about.

The mark [3] stands for this setting: 1 week in iPSm(-) supplemented with growth factor.
The mark [4] stands for this setting: 48 hours in HSM supplemented with the factor alone.

Consider `O=C(O)c1ccc(Cl)c(S(=O)(=O)Nc2cccc([N+](=O)[O-])c2)c1` [CTP inhibitor, 4-chloro-3-[[(3-nitrophenyl)amino]sulfonyl]-benzoic acid], for which the “survival of iPS cells observed with an optical microscope” value in data set [1] is “died”. On the same count and under the same terms, the result for `O=C1OC(C=Cc2ccccc2)=N/C1=C\c1cccnc1` [DAPK inhibitor, (4Z)-4-(3-pyridylmethylene)-2-styryl-oxazol-5-one] reads “died”. On to `CC(=O)Nc1ccc(Cc2ccc(NC(C)=O)cc2)cc1` [FH1, N,N′-(methylenebis(4,1-phenylene))diacetamide], for which, in the data set with AFP gene, the “expression level of AFP gene” value was “did not exhibit such effect”. On to `Cc1ccc(Cl)cc1N(CC(=O)Nc1c(F)cccc1F)S(C)(=O)=O` [FPH1, 2-(N-(5-chloro-2-methylphenyl)methylsulfonamido)-N-(2,6-difluorophenyl)acetamide], for which the “expression level of AFP gene” value in the data set on AFP gene is “increased”. Turning to `O=C1CCCC(=O)C1CC1C(=O)CCCC1=O` [M50054, 2,2′-methylenebis(1,3-cyclohexanedione)], in data set [1], the “survival of iPS cells observed with an optical microscope” value is recorded as “some of the iPS cells survived”. Further, the “expression of AFP gene” value with AFP gene (48 hours in HSM plus M50054 at […] as printed) is recorded as “upregulated”. Besides, the “MTS assay value, one-way analysis of variance” value in data set [2] (100 μg/mL compared to 0 μg/mL and 1,000 μg/mL, P<0.05) is reported as “significantly high value”. The “cell toxicity (MTS assay)” value in data set [2] (1,000 μg/mL) is “showed cell toxicity”. For the same molecule, the “absorbance in MTS assay (surviving cells)” value in data set [2] (48 hours after addition of M50054, 100 g/mL as printed) is “maximum absorbance”. “HGF: hepatocyte growth factor, commercially available from Wako Pure Chemical Industries”: in the data set with AFP gene (setting [3]), the “expression of AFP gene” value is reported as “upregulating effect”.

B1: oncostatin M: cytokine of the IL-6 family (protein, UniProt P13725 26-221, looked up)
Oncostatin-M: AAIGSCSKEYRVLLGQLQKQTDLMQDTSRLLDPYIRIQGLDVPKLREHCRERPGAFPSEETLRGLGRRGFLQTLNATLGCVLHRLADLEQRLPKAQDLERSGLNIEDLEKLQMARPNILGLRNNIYCMAQLLDNSDTAEPTKAGRGASQPPTPTPASDAFQRKLEGCRFLHGYHRFMHSVGRVFSKWGESPNRSRR
Regarding B1, the “expression of AFP gene” value in the data set with AFP gene (setting [3]) is given as “upregulating effect”. Also, in the data set on AFP gene (setting [4]), the “expression of AFP gene, compared to HGF” value was “high upregulating effect” and the “expression of AFP gene, compared to fetal liver” value is on record as “more upregulated than the expression of the gene in fetal liver”.

Source of the values: patent publication US10006005B2, “Culture medium and method for inducing differentiation of pluripotent stem cells to hepatoblasts” (National University Corporation Chiba University, priority 2014, dated 2018).
